# Experimental data: PMC12823440, “Inhibitors supercharge kinase turnover through native proteolytic circuits” (Nature, 2025)
# Tests used:
# Assay in all cases: biochemical
# ABL1 = ABL1 (Homo sapiens, UniProt P00519)
# BTK = BTK (Homo sapiens, UniProt Q06187)
# ABL2 = ABL2 (Homo sapiens, UniProt P42684)
# MAP4K3 = molecular target: T1, MAP4K3 (Homo sapiens, UniProt Q8IVH8)
# T1 sequence (Q8IVH8 1-894): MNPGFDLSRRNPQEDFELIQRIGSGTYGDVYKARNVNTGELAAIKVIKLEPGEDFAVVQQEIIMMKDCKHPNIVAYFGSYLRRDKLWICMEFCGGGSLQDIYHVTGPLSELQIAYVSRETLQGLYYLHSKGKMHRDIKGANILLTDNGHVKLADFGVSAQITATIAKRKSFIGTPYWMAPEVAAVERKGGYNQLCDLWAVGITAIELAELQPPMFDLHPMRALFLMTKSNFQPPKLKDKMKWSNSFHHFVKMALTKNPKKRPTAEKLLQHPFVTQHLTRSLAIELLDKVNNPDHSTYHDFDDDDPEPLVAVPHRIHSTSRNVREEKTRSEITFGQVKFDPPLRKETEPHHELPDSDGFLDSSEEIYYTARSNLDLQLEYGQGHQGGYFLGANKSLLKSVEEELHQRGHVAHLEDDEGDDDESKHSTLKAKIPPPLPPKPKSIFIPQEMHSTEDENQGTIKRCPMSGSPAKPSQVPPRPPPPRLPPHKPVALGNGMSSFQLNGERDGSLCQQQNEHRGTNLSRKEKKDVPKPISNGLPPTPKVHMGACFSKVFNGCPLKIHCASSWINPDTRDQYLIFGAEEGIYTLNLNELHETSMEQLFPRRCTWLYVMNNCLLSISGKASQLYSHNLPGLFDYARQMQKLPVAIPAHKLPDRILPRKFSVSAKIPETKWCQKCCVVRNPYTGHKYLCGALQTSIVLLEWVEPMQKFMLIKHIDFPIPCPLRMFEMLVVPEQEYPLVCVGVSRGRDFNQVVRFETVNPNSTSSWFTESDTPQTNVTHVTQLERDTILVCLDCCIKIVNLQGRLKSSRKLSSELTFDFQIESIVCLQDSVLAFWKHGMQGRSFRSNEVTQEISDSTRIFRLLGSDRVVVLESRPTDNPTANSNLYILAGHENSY
# ABL2, sequence (P42684 whole entry): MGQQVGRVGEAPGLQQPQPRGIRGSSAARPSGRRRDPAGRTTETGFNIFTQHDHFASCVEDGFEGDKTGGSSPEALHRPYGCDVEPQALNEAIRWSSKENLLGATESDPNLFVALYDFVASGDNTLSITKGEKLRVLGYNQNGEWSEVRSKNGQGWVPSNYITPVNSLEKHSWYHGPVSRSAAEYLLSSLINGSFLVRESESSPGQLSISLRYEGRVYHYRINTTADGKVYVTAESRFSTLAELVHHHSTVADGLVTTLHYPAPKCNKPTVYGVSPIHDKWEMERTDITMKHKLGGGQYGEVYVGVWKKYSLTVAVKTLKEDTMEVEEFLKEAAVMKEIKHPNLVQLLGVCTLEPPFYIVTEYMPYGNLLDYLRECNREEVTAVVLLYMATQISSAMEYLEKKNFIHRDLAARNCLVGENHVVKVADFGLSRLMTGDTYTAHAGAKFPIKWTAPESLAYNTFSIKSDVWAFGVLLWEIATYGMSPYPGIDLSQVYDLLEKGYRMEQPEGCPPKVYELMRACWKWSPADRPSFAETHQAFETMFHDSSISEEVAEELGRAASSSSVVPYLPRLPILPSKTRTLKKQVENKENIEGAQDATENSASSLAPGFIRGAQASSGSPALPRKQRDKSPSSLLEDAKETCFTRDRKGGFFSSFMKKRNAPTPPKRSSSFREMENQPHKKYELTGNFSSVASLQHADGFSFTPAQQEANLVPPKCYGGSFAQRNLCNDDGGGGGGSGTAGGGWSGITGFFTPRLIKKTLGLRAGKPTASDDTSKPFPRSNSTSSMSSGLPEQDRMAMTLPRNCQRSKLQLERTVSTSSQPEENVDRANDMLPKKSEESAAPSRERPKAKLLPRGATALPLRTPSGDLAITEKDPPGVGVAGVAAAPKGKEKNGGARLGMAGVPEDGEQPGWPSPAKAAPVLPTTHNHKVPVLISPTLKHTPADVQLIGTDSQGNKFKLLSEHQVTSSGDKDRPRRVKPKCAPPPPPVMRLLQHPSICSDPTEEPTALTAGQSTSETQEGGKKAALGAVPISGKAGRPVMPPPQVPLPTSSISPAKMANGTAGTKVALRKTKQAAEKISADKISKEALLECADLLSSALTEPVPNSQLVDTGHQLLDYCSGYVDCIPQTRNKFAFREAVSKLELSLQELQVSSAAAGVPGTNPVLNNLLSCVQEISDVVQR
# BTK, sequence (Q06187 whole entry): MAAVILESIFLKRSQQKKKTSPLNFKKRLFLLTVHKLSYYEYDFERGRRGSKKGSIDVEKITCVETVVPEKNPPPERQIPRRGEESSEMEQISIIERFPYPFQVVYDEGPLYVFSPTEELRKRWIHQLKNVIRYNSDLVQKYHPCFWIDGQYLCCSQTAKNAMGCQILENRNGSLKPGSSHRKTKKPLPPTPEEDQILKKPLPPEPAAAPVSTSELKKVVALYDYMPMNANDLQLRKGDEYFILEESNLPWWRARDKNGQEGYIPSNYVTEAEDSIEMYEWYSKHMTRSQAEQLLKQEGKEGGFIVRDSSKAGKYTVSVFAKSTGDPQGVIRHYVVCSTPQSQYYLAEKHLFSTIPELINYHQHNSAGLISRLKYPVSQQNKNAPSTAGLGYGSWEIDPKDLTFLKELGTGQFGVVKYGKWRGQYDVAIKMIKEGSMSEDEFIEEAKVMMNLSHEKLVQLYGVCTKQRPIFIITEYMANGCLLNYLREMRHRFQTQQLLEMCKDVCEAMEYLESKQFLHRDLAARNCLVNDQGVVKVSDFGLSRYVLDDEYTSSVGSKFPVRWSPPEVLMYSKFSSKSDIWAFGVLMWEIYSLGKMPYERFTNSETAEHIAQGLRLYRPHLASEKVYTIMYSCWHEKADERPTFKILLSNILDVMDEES
# ABL1, sequence (P00519 whole entry): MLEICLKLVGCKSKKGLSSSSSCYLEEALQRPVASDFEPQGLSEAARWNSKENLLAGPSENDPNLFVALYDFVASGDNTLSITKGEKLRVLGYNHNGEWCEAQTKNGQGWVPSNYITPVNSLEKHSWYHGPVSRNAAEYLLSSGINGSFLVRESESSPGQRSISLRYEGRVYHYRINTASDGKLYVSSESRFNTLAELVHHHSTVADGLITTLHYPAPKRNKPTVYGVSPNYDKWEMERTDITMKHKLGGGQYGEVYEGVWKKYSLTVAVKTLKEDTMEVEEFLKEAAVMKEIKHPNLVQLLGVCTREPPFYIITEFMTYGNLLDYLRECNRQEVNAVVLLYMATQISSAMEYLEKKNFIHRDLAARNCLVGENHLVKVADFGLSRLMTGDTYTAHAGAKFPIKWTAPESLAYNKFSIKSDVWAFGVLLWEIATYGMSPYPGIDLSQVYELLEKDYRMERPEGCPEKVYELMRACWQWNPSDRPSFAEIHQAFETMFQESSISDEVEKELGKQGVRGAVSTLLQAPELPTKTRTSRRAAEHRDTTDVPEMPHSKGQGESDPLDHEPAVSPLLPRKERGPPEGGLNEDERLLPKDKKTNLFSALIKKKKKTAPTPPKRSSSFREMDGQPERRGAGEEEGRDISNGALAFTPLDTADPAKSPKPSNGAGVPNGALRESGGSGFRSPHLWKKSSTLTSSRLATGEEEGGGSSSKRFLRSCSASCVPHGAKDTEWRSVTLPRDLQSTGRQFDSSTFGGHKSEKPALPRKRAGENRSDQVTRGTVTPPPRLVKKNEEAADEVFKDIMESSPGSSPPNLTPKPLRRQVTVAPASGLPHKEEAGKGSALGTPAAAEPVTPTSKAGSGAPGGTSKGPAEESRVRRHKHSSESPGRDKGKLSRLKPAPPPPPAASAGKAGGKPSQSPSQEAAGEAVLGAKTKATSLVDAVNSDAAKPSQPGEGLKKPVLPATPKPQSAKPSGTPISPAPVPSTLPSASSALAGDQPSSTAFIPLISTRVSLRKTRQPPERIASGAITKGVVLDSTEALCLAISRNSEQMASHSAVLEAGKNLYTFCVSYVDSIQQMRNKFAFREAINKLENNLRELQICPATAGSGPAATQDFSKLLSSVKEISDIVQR
compound,measurement,setting,value
COc1ccc2c(C(=O)Nc3ccc(NC(=O)c4nn(C5CCN(C(=O)CC(C)(C)C#N)CC5)c5ccc(F)cc45)cc3Cl)cnn2c1 [SI-3],Kd,ABL1,353 nM
same,Kd,BTK,3080 nM
same,Kd,ABL2,40.2 nM
same,Kd,MAP4K3,9700 nM
